According to patent US20150164762A1, “USE OF ETHANOLAMINE PHOSPHATE” (priority 2012, published 2015):

How the values were obtained:
[1] = tested on: A549; assay: WST-8 proliferation test, A549 cancer cells; type: cell-based, human; conditions: 0% FBS, 96 hours, even at high concentrations
Experimental: 0% FBS RPMI-1640 was used as the medium. 24 hours after seeding the cells were washed with 20 μl per well of PBS, and the medium was replaced with 0% FBS RPMI-1640. Following medium replacement, EP solution with 10 times the set concentration was added 10 μl per well, and a proliferation test (WST-8 assay) was performed 96 hours after addition of EP.

[2] = tested on: BEAS-2B; assay: Cell toxicity of H2O2 after EP pre-treatment (WST-8 assay); type: cell-based, human
Experimental: Cells of the normal airway epithelial cell line BEAS-2B were seeded at a density of 1×10^5/cm^2 on a 96-well plate, and after 24 hours the medium was replaced with 0.5% FBS RPMI 1640 containing EP at final concentrations of 0, 250 and 500 μM. 24 hours after medium replacement the medium was replaced with 0.5% FBS RPMI-1640, and serially diluted H2O2 was administered (n=4). 24 hours after H2O2 administration a cell toxicity test WST-8 assay (Cell Counting Kit-8, Dojindo) was performed. For the data analysis, the 50% cell death concentration EC50 was calculated with GraphPad Prism 5 statistical analysis software.

[3] = tested on: BEAS-2B; assay: Transepithelial electrical resistance (TER), BEAS-2B; type: cell-based, human; conditions: EP 1 mM, 1% FBS
Experimental: Cells of the established normal human airway epithelial cell line BEAS-2B were seeded to 1×10^5 cells/cm^2 on a cell culture insert (353104, BD Falcon) (FIG. 14). 10% FBS RPMI-1640 was used as the medium. The amount of medium was 200 μl on the insert side and 750 μl on the well side. Beginning the next day, substitution/medium replacement was performed once a day with 1% FBS RPMI-1640 prepared with the following 4 reagent conditions, and transepithelial electrical resistance (TER) was measured with MilliCell (Millipore). • Condition 1: Control • Condition 2: EP 1 mM • Condition 3: Dexamethasone 1 μM (dexamethasone (Dex): positive control substance known to enhance barrier function) • Condition 4: EP 1 mM and Dex 1 μM

[4] = tested on: BEAS-2B; assay: Proliferative effects of EP and its metabolic derivatives (WST-8); type: cell-based, human; conditions: 0.1% FBS, 72 hours
[5] = tested on: HEKa cells; assay: Transepithelial electrical resistance (TER), HEKa; type: cell-based, human; conditions: 1 mM EP
Experimental: HEKa cells were seeded to 6×10^4 cells/cm^2 on a cell culture insert (353104, BD Falcon). Culture was performed in complete medium consisting of HKGS Kit (S-001-K, Invitrogen) added to Epilife basal medium (M-EPI-500-CA, Invitrogen), and once confluence was reached, a medium containing […] the specific compounds listed under Conditions 1 to 3 above was substituted for the complete medium, and medium replacement was performed once a day. TER was measured as in Example 11.

[6] = tested on: NHLF cells; assay: WST-8 proliferation test, primary normal human lung fibroblasts (NHLF); type: cell-based; conditions: 0% FBS DMEM, 124 hours
Excerpt: 10% FBS-DMEM was used as the medium.

[7] = tested on: TNF-α; assay: ELISA of TNF-α secreted from THP-1 cells, with or without LPS; type: cell-based, human
Experimental: (§1) Human monocytic cultured THP-1 cells were cultured logarithmically as follows in 10% FBS RPMI-1640 growth culture. Cells were seeded to 4×10^5/ml on a 24-well plate (500 μl/well), additional growth culture containing EP was added, and finally the EP concentration was adjusted to the target concentration (0.1 mM, 1 mM). 2 hours after EP administration, further growth medium containing lipopolysaccharides (LPS) was added, and adjusted to concentrations of 0.1 μg/ml and 1 μg/ml.
(§2) 4 hours and 24 hours after lipopolysaccharide administration, the medium was collected, the cells were precipitated by centrifugation, and the supernatant was used as an ELISA sample. As in the Singh et al. report, the inflammatory cytokine TNF-α and the chemokine IL-8, which attracts inflammatory cells, were used as ELISA measurement indicators.

[8] = tested on: IL-8; assay: ELISA of IL-8 secreted from THP-1 cells, with or without LPS; type: cell-based, human
Experimental: as §1, §2

[9] = tested on: HHDPC cells; assay: WST-8 proliferation test, primary normal human hair dermal papilla cells (HHDPC)
Experimental: HHDPC cells (Cosmo Bio) were seeded to 1×10^4 cells/cm^2 on a 96-well plate. Complete MSCM medium (500, ScienCell) was used as the medium. After 24 hours, the cells were washed gently with 200 μl per well of PBS, the medium was replaced with 90 μl per well of 0% FBS DMEM with 1 vol % of complete MSCM medium added thereto, and the cells were cultured for 24 hours. After culture, 10 μl per well of EP solution was added, and a proliferation test (WST-8 assay) was performed 6 days after EP administration. The WST-8 assay was performed as in Example 1. The same test was performed using minoxidil, which has a clinical hair growth effect.

[10] = 4 hours and 24 hours of stimulus, EP 0.1 mM, 1 mM
[11] = cells not treated with LPS, 26 hours, 1 mM EP

SMILES: NCCOP(=O)(O)O [EP, Ethanolamine phosphate]
- cell proliferation ability [1]: absolutely no cell proliferation ability
- Toxity reduction rate % (H2O2 cytotoxicity) ([2]; EP pre-treatment 250 uM): 33%
- Toxity reduction rate % (H2O2 cytotoxicity) ([2]; EP pre-treatment 500 uM): 28%
- reduction of the cytotoxicity of H2O2 ([2]; pre-treatment with 250 to 500 μM of EP): about 30%
- increase in TER [3]: 49%
- proliferative action [4]: dose-dependent proliferative action
- rise in TER value relative to the control [5]: 2.3 fold
- growth-stimulating effect [6]: growth-stimulating effect
- secretion of LPS-induced TNF-α [7, 10]: dose-dependently suppressed
- amount of TNF-α induced by LPS stimulus ([7]; LPS 1 μg/ml, 24 hours of stimulus, EP 1 mM): about 70 pg/ml
- TNF-α secretion, reduced to % of untreated [7, 11]: about 78%
- secretion of LPS-induced IL-8 [8, 10]: dose-dependently suppressed
- IL-8 secretion, reduced to % of untreated [8, 11]: about 43%
- effective concentration range for proliferative effect ([9]; 6 days): very broad concentration range
- proliferative effect ([9]; 6 days): equal to or greater than that of minoxidil
- cell toxicity ([9]; high concentrations): non-toxic
